Results: article PMC3242765, “Inhibitors of Alphavirus Entry and Replication Identified with a Stable Chikungunya Replicon Cell Line and Virus-Based Assays” (PLoS ONE, 2011)
Structures can show the parent of a compound that is named as a salt.

Key:
[1] = system: CHIKV replicon; test: microbe, parasite or virus in culture; type: cell-based, Chikungunya virus (CHIKV)
[2] = system: SFV-Rluc

SMILES	CHIKV replicon % left [1]	SFV replication % left (surviving fraction, remaining percentage of SFV replication) [2]
CC(=O)Nc1ccc(S(N)(=O)=O)cc1 [N-Acetylsulfanilamide]	104.1%	63.2%
O=c1oc2ccccc2c(O)c1Cc1c(O)c2ccccc2oc1=O [Dicumarol]	43.0%	65.6%
Cc1ccccc1OCC(O)CO (stereo not drawn)	54.1%	79.2%
CC(CCc1ccccc1)NCC(O)c1ccc(O)c(C(N)=O)c1 (stereo not drawn) [Labetalol hydrochloride]	100.1%	72.5%
CC(N)C(O)c1ccc(O)c(O)c1 (stereo not drawn) [Nordefrin hydrochloride]	104.2%	118.0%
CCN(CCO)CCCC(C)Nc1ccnc2cc(Cl)ccc12 (stereo not drawn) [Hydroxychloroquine sulfate]	100.1%	128.9%
CC(C)Cc1ccc(C(C)C(=O)O)cc1 (stereo not drawn) [Ibuprofen]	100.5%	92.8%
O=c1ccc2ccccc2o1 [Coumarin]	85.0%	68.8%
COc1ccc([C@@H]2CC(=O)c3c(O)cc(O[C@@H]4O[C@H](CO[C@@H]5O[C@@H](C)[C@H](O)[C@@H](O)[C@H]5O)[C@@H](O)[C@H](O)[C@H]4O)cc3O2)cc1O [Hesperidin]	102.2%	77.7%
CC(C)[N+](C)(CCOC(=O)C1c2ccccc2Oc2ccccc21)C(C)C [Propantheline bromide]	104.2%	77.0%
CN(C)CCCN1c2ccccc2Sc2cccnc21.Cl [Prothipendyl hydrochloride]	11.2%	7.4%
CC(=O)NS(=O)(=O)c1ccc(N)cc1 [Sulfacetamide]	50.4%	100.8%
CC1=C2[C@H]3OC(=O)[C@@H](C)[C@@H]3CC[C@@]2(C)C=CC1=O [Santonin]	101.9%	99.9%
CC(C)(C)NCC(O)c1ccc(O)c(CO)c1.CC(C)(C)NCC(O)c1ccc(O)c(CO)c1.O=S(=O)(O)O (racemic) [(+/-) Salbutamol sulfate]	71.9%	105.0%
Nc1ccc(S(N)(=O)=O)cc1 [Sulfanilamide]	100.5%	64.2%
COc1cc(C=O)ccc1O [Vanillin]	71.7%	47.9%
COc1ccc2c(c1OC)C(=O)O[C@@H]2[C@H]1c2c(cc3c(c2OC)OCO3)CCN1C [Noscapine]	78.4%	103.5%
CC(C)(C)NCC(O)c1cc(O)cc(O)c1.CC(C)(C)NCC(O)c1cc(O)cc(O)c1.O=S(=O)(O)O (stereo not drawn) [Terbutaline hemisulfate salt]	87.2%	97.5%
COC(=O)C1=CCCN(C)C1 [Arecoline hydrobromide]	101.1%	83.6%
c1ccc(CN(CC2=NCCN2)c2ccccc2)cc1 [Antazoline hydrochloride]	100.5%	38.7%
O=c1oc2c(O)c(O)cc3c(=O)oc4c(O)c(O)cc1c4c23 [Ellagic acid]	71.1%	64.9%
O=C(O)Cc1cccc(O)c1 [3-hydroxyphenylacetic acid]	54.1%	110.8%
COc1ccc(Cc2nccc3cc(OC)c(OC)cc23)cc1OC [Papaverine]	78.2%	99.3%
COc1cc(-c2[o+]c3cc(O)cc(O[C@@H]4O[C@H](CO)[C@@H](O)[C@H](O)[C@H]4O)c3cc2O[C@@H]2O[C@H](CO)[C@@H](O)[C@H](O)[C@H]2O)cc(OC)c1O.[Cl-] [Malvin chloride]	72.3%	15.4%

SMILES	CHIKV replicon % left [1]	SFV replication % left (surviving fraction, remaining percentage of SFV replication) [2]
CCCCNc1ccc(C(=O)OCCN(C)C)cc1 [Tetracaine hydrochloride]	71.1%	102.8%
CC(C)(C)NCC(O)COc1ccc(NC(=O)NC2CCCCC2)cc1 (stereo not drawn) [Talinolol]	91.8%	76.9%
O=c1c(O)c(-c2ccc(O)c(O)c2)oc2cc(O)cc(O)c12 [Quercetin]	110.2%	125.8%
CCCCNc1ccc(C(=O)OCCN(C)C)cc1 [Cainopan, p-Butylaminobenzoyldimethylaminoethanol]	82.2%	63.8%
O=C(Oc1ccccc1)c1ccccc1O [Phenyl salicylate]	94.3%	118.2%
CC(O)Cn1cnc2c1c(=O)n(C)c(=O)n2C (stereo not drawn) [7-(β-Hydroxypropyl)theophylline]	70.9%	125.5%
Cc1cc(=O)oc2c3c4c(cc12)CCCN4CCC3 [Coumarin 102]	65.4%	34.6%
CCC1(c2ccccc2)C(=O)NC(=O)NC1=O [Phenobarbital]	43.2%	58.6%
Cc1cc(C(C)(C)C)c(O)c(C(C)(C)C)c1 [Butylated hydroxytoluene]	47.8%	72.6%
O=C1CN=C(c2ccccc2)c2cc([N+](=O)[O-])ccc2N1 [Nitrazepam]	98.8%	46.0%
O=C(O)/C=C/c1ccccc1O [o-Coumaric acid]	98.6%	77.6%
NC(=O)N/N=C/c1ccc([N+](=O)[O-])o1 [Nitrofurazone]	102.1%	83.7%
C[N+]1(C)[C@@H]2CC[C@H]1C[C@@H](OC(=O)C(CO)c1ccccc1)C2 (stereo partly drawn) [Methylatropine bromide]	54.9%	70.9%
Cc1cc(=O)oc2cc(O)ccc12 [4-Methylumbelliferone]	105.6%	90.9%
O=C(O)c1ccccc1C(=O)O [Phthalic acid]	96.6%	143.7%
CCN(CC)C(C)CN1c2ccccc2Sc2ccccc21 (stereo not drawn) [Ethopropazine hydrochloride]	59.8%	20.1%
COc1ccc2c(C)cc(=O)oc2c1 [7-Methoxy-4-methylcoumarin]	100.6%	72.2%
C=CCOc1ccccc1OCC(O)CNC(C)C (stereo not drawn) [Oxprenolol hydrochloride]	84.3%	92.4%
[H]/N=C(/N)NS(=O)(=O)c1ccc(N)cc1 [Sulfaguanidine]	62.1%	63.5%
CC(=O)Nc1nnc(S(N)(=O)=O)s1 [Acetazolamide]	102.2%	71.3%
COc1ccc(C(=O)Cc2c(CCN(C)C)cc3c(c2OC)OCO3)c(C(=O)O)c1OC [Narceine]	70.7%	118.3%
CC(CN1c2ccccc2Sc2ccccc21)N(C)C (stereo not drawn) [Promethazine hydrochloride]	39.2%	48.8%
Cc1cc(C)nc(NS(=O)(=O)c2ccc(N)cc2)n1 [Sulfamethazine]	100.5%	91.7%
CC(=O)c1cccc(O)c1 [3-Hydroxyacetophenone]	97.4%	125.8%
